In US6916844B2, “Hydroxy pyranone derivative and preparation method thereof” (Amorepacific Corporation, priority 2002, dated 2005):

Experiments:
[1] = tested on: white guinea pigs; assay: Phototoxicity test; type: in vivo; details: 1% (w/v) solution, UVA 15 J/cm^2, observed at 24, 48 and 72 hours; for Phototoxic index: below 0.5 = no phototoxicity
Experimental: This test was performed for ten (10) white guinea pigs whose hairs on both sides of the backs were cut, and fixed. On the back of the guinea pig, six (6) test sites measuring 2.5 cm×2.5 cm, three (3) per each side, were sectioned. Right sites were prepared as controls with no irradiation (UV non-irradiation sites) and left sites were irradiated (UV irradiation sites). Vehicle (1,3-butylene glycol:ethanol=7:3) was used as a negative control, and 0.1% concentration of 8-MOP (methoxypsoralene) was used as a positive control; and 1% (w/v) solutions of the compounds of Examples 1˜6 were applied to either site with an amount of […] for each site. 30 minutes later, right sites were shielded with aluminum foil and UVA(320˜380 nm) was irradiated at a distance of about 10 cm therefrom with Waldmann to the final energy of 15 J/cm^2. After 24, 48 and 72 hours elapsed, skin response of guinea pig was observed. Erythema and edema were scored from 0 to 4 points as shown in the Table 3, and skin response was evaluated by summing the scores. Maximum scores were selected when measured on each elapsed time, i.e. 24, 48 and 72 hours, and irritation index was calculated according to the following equation 2. Then, phototoxic index was calculated according to the following equation 3.
[Equation 2] Irritation index=(Maximum of erythema+Maximum of edema)/Number of animals [Equation 3] Phototoxic index=(Irritation index of UV irradiation site)−(Irritation index of UV non-irradiation site)

[2] = tested on: Human fibroblasts; assay: Collagenase-inhibiting effect (collagenase expression, ELISA kit); type: cell-based; details: 10^-4 M, 24 hours, relative to untreated control group = 100
Experimental: The collagenase-inhibiting effect of hydroxy pyranone derivatives obtained in Examples 1˜6 was compared with those of retinol and retinoic acid.
Human fibroblasts were cultured in Dulbecco's Modified Eagle's Medium (DMEM) supplemented with 2.5% fetal bovine serum. The fibroblasts were seeded into a 96-well microtiter plate to a density of 5,000 cells/well, and then cultured to 70˜80% of growth. The plate was treated with test samples at a concentration of 10^−4M for 24 hours, then the cultured medium and the cells were raked up and recovered. From the recovered culture, collagenase production was measured with collagenase kit (Catalog #: RPN 2610) commercialized by Amersham Pharmacia Biotech. First, the recovered culture was added into a 96-well plate wherein primary collagenase antibodies were uniformly spread, and then antigen-antibody reaction was performed in an incubator for 3 hours. Later, secondary collagenase antibodies bonded with chromophore were added to the 96-well plate and reacted for 15 minutes. Then, color former was added thereto in order to induce development at the room temperature for 15 minutes, and 1M of sulfuric acid was added to stop the reaction. The reaction solution became yellow, and the color density depends on the progress of the reaction. The absorbance of the yellow 96-well plate was measured at 405 nm with absorptiometer. The expression of collagenase was calculated by the following equation 1. No sample was treated in the control group.
[Equation 1] The expression of collagenase (%)=[(Absorbance of test group)/(Absorbance of control group)]×100
The expression of collagenase was evaluated as a relative value compared with that of the control group of which the expression of collagenase was set to be 100.

[3] = tested on: healthy females and males; assay: Human patch test; type: in vivo; details: 1% in patch base; for Average Response (n = 30): calculated by equation 4, below 1 = no irritation; for Number of the subjected showing response, 24 hours later, − (No visible response) / Number of the subjected showing response, 24 hours later, ± (Mild erythema) / Number of the subjected showing response, 24 hours later, + (Intense erythema) / Number of the subjected showing response, 24 hours later, + + (Intense erythema with edema) / Number of the subjected showing response, 24 hours later, + + + (Intense erythema with edema and vesicle): n = 30, 24 hours later; for Number of the subjected showing response, 24 hours later, − (No visible response) / Number of the subjected showing response, 48 hours later, − (No visible response): grade 0; for Number of the subjected showing response, 24 hours later, ± (Mild erythema) / Number of the subjected showing response, 48 hours later, ± (Mild erythema): grade 1; for Number of the subjected showing response, 24 hours later, + (Intense erythema) / Number of the subjected showing response, 48 hours later, + (Intense erythema): grade 2; for Number of the subjected showing response, 24 hours later, + + (Intense erythema with edema) / Number of the subjected showing response, 48 hours later, + + (Intense erythema with edema): grade 3; for Number of the subjected showing response, 24 hours later, + + + (Intense erythema with edema and vesicle) / Number of the subjected showing response, 48 hours later, + + + (Intense erythema with edema and vesicle): grade 4; for Number of the subjected showing response, 48 hours later, − (No visible response) / Number of the subjected showing response, 48 hours later, ± (Mild erythema) / Number of the subjected showing response, 48 hours later, + (Intense erythema) / Number of the subjected showing response, 48 hours later, + + (Intense erythema with edema) / Number of the subjected showing response, 48 hours later, + + + (Intense erythema with edema and vesicle): n = 30, 48 hours later
Experimental: This test was performed for thirty (30) healthy females and males aged on average 24.8 years and having no experience of hypersensitivity, according to method of CTFA Guideline (The Cosmetic, Toiletry and Fragrance Association. Inc. Washington, D.C., 20023, 1991). Each compound of Examples 1˜6 was dissolved in patch base having the composition of Table 6 to be 1% concentration as for test materials, and 20 μl of each test materials was dropped into a Finn chamber respectively, then attached to the forearm of the subject and fixed with a micropore tape. After 24 hours of patching, the patches were removed and the test sites were marked with marking pen. The observations of the test sites were made after 24 and 48 hours from the patching.
The average response of Table 8 was calculated by the following equation 4. [formula]

[4] = tested on: Human fibroblasts; assay: Effect on biosynthesis of collagen (procollagen type (I) ELISA); type: cell-based; details: 10^-4 M, 24 hours, relative to untreated control group = 100
Experimental: The effect of the hydroxy pyranone derivatives obtained in Examples 1˜6 on biosynthesis of collagen was compared with those of retinol and retinoic acid.
Human fibroblasts were seeded into a 24-well plate to a density of 10^5 cells/well and then cultured to 90% of growth. The plate was washed with PBS (phosphate buffered saline) and treated with test samples at a concentration of 10^−4M, and then incubated in a CO2 incubator for 24 hours. From its supernatant, procollagen production was measured with procollagen type (I) ELISA kit. The biosynthesis of collagen was evaluated as a relative value compared with that of the control group, which is not treated with sample and of which the value of biosyntheis of collagen was set to be 100.

[5] = tested on: rabbits; assay: Primary skin irritation test on animals (Draize P.I.I.); type: in vivo; details: 1% in 1,3-butylene glycol:ethanol=7:3, 0.5 ml, observed 24 and 72 hours later
Experimental: This test was performed for six (6) healthy male rabbits whose hairs on both sides of the backs were cut. The compounds of Examples 1˜6 were dissolved in 1,3-butylene glycol:ethanol=7:3, to obtain 1% concentration of test samples. 0.5 ml of each test samples were applied to right side area of 2.5 cm×2.5 cm. No sample was treated on left side as a control. 24 hours and 72 hours later, skin abnormality such as erythema, crust and edema was observed. Based on the score of skin response, skin irritation was estimated according to Draize's P.I.I. (Primary Irritation Index) and compared with that of retinoic acid.

For `O=c1cc(/C=C/c2ccc3c(c2)OCCO3)occ1O` [Compound of Ex. 6, 2-((1E)-2-(2H,3H-benzo [3,4-e] 1,4-dioxan-6-yl)vinyl)-5-hydroxy-4H-pyran-4-one], the “Evaluation (phototoxicity)” value [1] was “No phototoxicity”, the Phototoxic index [1] was 0 and the “Expression of collagenase (%)” value [2] was 84%. The “Average Response (n = 30)” value [3] was 0.00, the “Number of the subjected showing response, 24 hours later, − (No visible response)” value [3] was 30 and the “Number of the subjected showing response, 24 hours later, ± (Mild erythema)” value [3] was 0. The “Number of the subjected showing response, 24 hours later, + (Intense erythema)” value [3] was 0, the “Number of the subjected showing response, 24 hours later, + + (Intense erythema with edema)” value [3] was 0 and the “Number of the subjected showing response, 24 hours later, + + + (Intense erythema with edema and vesicle)” value [3] was 0. The “Number of the subjected showing response, 48 hours later, − (No visible response)” value [3] was 30, the “Number of the subjected showing response, 48 hours later, ± (Mild erythema)” value [3] was 0 and the “Number of the subjected showing response, 48 hours later, + (Intense erythema)” value [3] was 0. For the same molecule, the “Number of the subjected showing response, 48 hours later, + + (Intense erythema with edema)” value [3] was 0, the “Number of the subjected showing response, 48 hours later, + + + (Intense erythema with edema and vesicle)” value [3] was 0 and the “Biosynthesis of collagen (%)” value [4] was 115%. The “Evaluation (skin irritation)” value [5] was “No irritation” and the “P. I. I. (Primary Irritation Index)” value [5] was 0.315.

In the case of “((3E)-4-(2H,3H-benzo [3,4-d] 1,3-dioxolan-5-yl)-2-oxobut-3-enyloxy)-5-hydroxy-4H-pyran-4-one [Compound of Ex. 3]”, the “Evaluation (phototoxicity)” value [1] was “No phototoxicity”, the Phototoxic index [1] was 0 and the “Expression of collagenase (%)” value [2] was 78%. For the same molecule, the “Average Response (n = 30)” value [3] was 0.00, the “Number of the subjected showing response, 24 hours later, − (No visible response)” value [3] was 30 and the “Number of the subjected showing response, 24 hours later, ± (Mild erythema)” value [3] was 0. For the same molecule, the “Number of the subjected showing response, 24 hours later, + (Intense erythema)” value [3] was 0, the “Number of the subjected showing response, 24 hours later, + + (Intense erythema with edema)” value [3] was 0 and the “Number of the subjected showing response, 24 hours later, + + + (Intense erythema with edema and vesicle)” value [3] was 0. The “Number of the subjected showing response, 48 hours later, − (No visible response)” value [3] was 30, the “Number of the subjected showing response, 48 hours later, ± (Mild erythema)” value [3] was 0 and the “Number of the subjected showing response, 48 hours later, + (Intense erythema)” value [3] was 0. The “Number of the subjected showing response, 48 hours later, + + (Intense erythema with edema)” value [3] was 0, the “Number of the subjected showing response, 48 hours later, + + + (Intense erythema with edema and vesicle)” value [3] was 0 and the “Biosynthesis of collagen (%)” value [4] was 123%. The “Evaluation (skin irritation)” value [5] was “No irritation” and the “P. I. I. (Primary Irritation Index)” value [5] was 0.375.
